Source: patent publication US8147883B1, “Use of a plant oil product as an agent for increasing the synthesis of skin lipids” (Laboratoires Expanscience, priority 1999, dated 2012)
Values joined by “and” are separate entries in the source; they are usually repeats but may differ in a detail not shown here. Equal entries are not always repeated. Marks after values point to notes of the source that are not given here.

What was measured:
[1] = tested on: disks of whole human skin; experiment: Neosynthesis of the total epidermal lipids (14C-acetate incorporation) in organotypical model of whole human skin in culture; format: cell-based; settings: incubation 18 hours
Experimental: (§1) The study is performed in vitro in an organotypical model of whole human skin in culture. Two techniques successively used: • measurement of the incorporation of acetate radiolabeled with carbon 14 into the neosynthesized epidermal lipids in toto; • analysis by thin layer chromatography to separate the main classes of neosynthesized radiolabeled epidermal lipids.
(§2) A fragment of human skin was collected after an abdominal plastic surgery-operation. This was performed on a person (subject I0129). Skin disks 8 mm in diameter were cut out using a sample punch.
(§3) The skin disks are placed in gondolas. The gondolas are placed in culture wells containing MCF medium, composed of MEM/M199 medium (3/4, 1/4; v/v) supplemented with penicillin (50 IU/ml), streptomycin (50 μg/ml), sodium bicarbonate (0.2%, w/v) and FCS (2%, v/v).
(§4) The test products are tested undiluted. They are placed at the center of each human skin disk, in a proportion of 10 mg/cm^2. The incubation medium for the human skin disks (MIF medium) is composed of MCF medium containing 1 μCi/ml of acetate labeled with carbon 14 (Amersham, specific activity: 57 mCi/mmol).
(§5) The lactic acid is used in topical application (10 mg/cm^2).
(§6) The human skin disks are incubated in the presence of the test products and the reference products for 18 hours at 37° C. in a humid atmosphere containing 5% CO2.
(§7) Each experimental condition is performed in quadruplicate.
At the end of the incubation, the human skin disks are rinsed thoroughly with PBS buffer. The epidermis of each skin disk is dissociated from the dermis by means of a controlled heat shock (MilliQ water, 2 min, 62° C.) The epidermises thus dissociated are digested with trypsin (ICN, 1%, w/v) overnight at 37° C. The cell dissociation is facilitated by the action of ultrasound. […]
The radioactivity of each sample, corresponding to the amount of acetate incorporated into the neosynthesized lipids, is measured by liquid scintillation. […]

[2] = tested on: disks of whole human skin; experiment: Nature of the neosynthesized epidermal lipids (thin layer chromatography of 14C-labeled lipids) in whole human skin disks; format: cell-based; parameters: neosynthesis of cholesteryl sulfate, percentage of the control group: concentration or dose not given beside the values
Experimental: as §1, §2, §3, §4, §5, §6, §7
Starting with the samples of extracted lipids, 20 μl aliquots, corresponding to 3 700 cpm, are placed on silica 60 (Merck) chromatography plates. These plates are developed in three successive solvents: • 38/2/10 chloroform/acetone/methanol (v/v/v), • 40/5/5 chloroform/acetone/methanol (v/v/v), • 36/10/3/1 chloroform/ethyl acetate/ether/methanol (v/v/v/v).
This system makes it possible to separate the cholesteryl sulfate, the cerebrosides, the ceramides, the cholesterol and the tri-+diglycerides. The most polar lipids, referred to hereinbelow as “polar lipids”, remain on the base line.
The silica plates are then placed in exposure with films for autoradiography for 15 days (Amersham, Hyperfilm beta max).
The position of the various classes of lipids—polar lipids, cholesteryl sulfate, cerebrosides, ceramides 1 and 2, cholesterol and tri-+diglycerides—is determined using suitable standards.
The results are expressed as percentages of the radioactivity of the total lipids neosynthesized and deposited on the TLC.

[3] = percentage of the radiolabeled total lipids applied onto the TLC, mean of 4 disks, 18 hours
[4] = percentage of the radiolabeled total lipids applied onto the TLC, single disks, 18 hours

“EGF: epidermal growth factor obtained from R&D Systems, reference product tested at 10 ng/ml” was tested, and the “neosynthesis of the total epidermal lipids, percentage of the control group” value ([1]; topical 10 mg/cm2, EGF 10 ng/ml) was 122%, the “neosynthesis of the total epidermal lipids, mean” value ([1]; mean of 4 disks, topical 10 mg/cm2, EGF 10 ng/ml) was 4080.02 cpm/mg of epidermis and the “neosynthesis of the total epidermal lipids, individual skin disk” value ([1]; single disks of quadruplicate, compositions and lactic acid undiluted 10 mg/cm2 topical, EGF 10 ng/ml in medium) was 3104.63 cpm/mg of epidermis and 5043.66 cpm/mg of epidermis and 3606.76 cpm/mg of epidermis and 4565.02 cpm/mg of epidermis. For the same substance, the “neosynthesis of ceramide 1, percentage of the control group” value ([2]; 18 hours) was 120%, the “neosynthesis of ceramide 2, percentage of the control group” value ([2]; 18 hours) was 155% and the “neosynthesis of cerebrosides, percentage of the control group” value ([2]; 18 hours) was 125%. The “neosynthesis of cholesterol, percentage of the control group” value ([2]; 18 hours) was 128%, the “neosynthesis of cholesteryl sulfate, percentage of the control group” value ([2]; 18 hours) was 54% and the “neosynthesis of polar lipids, percentage of the control group” value ([2]; 18 hours) was 119%. The “neosynthesis of ceramide 1, mean” value [2, 3] was 2.72%, the “neosynthesis of ceramide 2, mean” value [2, 3] was 3.00* % and the “neosynthesis of cerebrosides, mean” value [2, 3] was 3.87%. For the same substance, the “neosynthesis of cholesteryl sulfate, mean” value [2, 3] was 3.00* %, the “neosynthesis of polar lipids, mean” value [2, 3] was 38.23% and the “neosynthesis of tri- + diglycerides, mean” value [2, 3] was 45.10%. The “neosynthesis of ceramide 1, individual skin disk” value [2, 4] was 2.02% and 1.41% and 3.41% and 4.02%, the “neosynthesis of ceramide 2, individual skin disk” value [2, 4] was 3.81% and 2.38% and 2.74% and 3.05% and the “neosynthesis of cerebrosides, individual skin disk” value [2, 4] was 2.87% and 3.82% and 4.77% and 4.02%. The “neosynthesis of cholesterol, individual skin disk” value [2, 4] was 7.07% and 9.46% and 7.86% and 9.99%, the “neosynthesis of cholesteryl sulfate, individual skin disk” value [2, 4] was 2.31% and 3.69% and 3.44% and 2.57% and the “neosynthesis of polar lipids, individual skin disk” value [2, 4] was 57.27% and 34.42% and 27.69% and 33.53%. The “neosynthesis of tri- + diglycerides, individual skin disk” value [2, 4] was 42.67% and 44.82% and 50.08% and 42.83%, the “increase of the neosynthesis of ceramide 2” value ([2]; versus control) was 55% and the “reduction of the neosynthesis of cholesteryl sulfate” value ([2]; versus control) was 46%.
